A short description of this test: CD69 Whole Blood Assay (CD69 Hu Blood FACS). The class given is cell-based, human. As to conditions: Lymphocyte; human whole blood, anti-IgM activated B lymphocytes, FACS; IC70; Table 2 (unit inferred); read-out: CD69 Hu Blood FACS (IC70). The procedure, abridged:
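Compounds tested for blocking B-cell CD69 induction by flow cytometry in human whole blood, with activation via anti-human IgM goat F(ab′)2 crosslinking of surface IgM.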

Consider `COCCN1CCn2nc(Nc3cc(-c4nccc(N5CCn6c(cc7c6CC(C)(C)C7)C5=O)c4CO)cn(C)c3=O)cc2C1` [Example 329, 3-[3-(hydroxymethyl)-2-[5-[[5-(2-methoxyethyl)-6,7-dihydro-4H-pyrazolo[1,5-a]pyrazin-2-yl]amino]-1-methyl-6-oxo-3-pyridyl]-4-pyridyl]-7,7-dimethyl-1,2,6,8-tetrahydrocyclopenta[3,4]pyrrolo[3,5-b]pyrazin-4-one], for which the IC70 (commonly the concentration needed for an effect of 70%) was 110 nM. The value for `Cn1nc(-c2ccnc(N3CCc4c(sc5c4CC(C)(C)C5)C3=O)c2CO)cc(Nc2cc3n(n2)CC(C)(C)OC3)c1=O` [Example 330, 3-[4-[5-[(6,6-dimethyl-4,7-dihydropyrazolo[5,1-c][1,4]oxazin-2-yl)amino]-1-methyl-6-oxo-pyridazin-3-yl]-3-(hydroxymethyl)-2-pyridyl]-7,7-dimethyl-1,2,6,8-tetrahydrocyclopenta[3,4]thieno[1,3-c]pyridin-4-one] was 235 nM; that for `CCc1nnc(Nc2cc(-c3ccnc(N4CCn5c(cc6c5CC(C)(C)C6)C4=O)c3CO)cn(C)c2=O)s1` [Example 332, 3-[4-[5-[(5-ethyl-1,3,4-thiadiazol-2-yl)amino]-1-methyl-6-oxo-3-pyridyl]-3-(hydroxymethyl)-2-pyridyl]-7,7-dimethyl-1,2,6,8-tetrahydrocyclopenta[3,4]pyrrolo[3,5-b]pyrazin-4-one] was 91.9 nM. The value for `Cn1cc(Nc2cc(-c3ccnc(N4CCc5c(sc6c5CC(C)(C)C6)C4=O)c3CO)cn(C)c2=O)nn1` [Example 333, 3-[3-(hydroxymethyl)-4-[1-methyl-5-[(1-methyltriazol-4-yl)amino]-6-oxo-3-pyridyl]-2-pyridyl]-7,7-dimethyl-1,2,6,8-tetrahydrocyclopenta[3,4]thieno[1,3-c]pyridin-4-one] was 209 nM. With `Cn1cc(-c2ccnc(-n3ncc4c5c(sc4c3=O)CC(C)(C)C5)c2CO)cc(Nc2cc3n(n2)CC(C)(C)OC3)c1=O` [Example 335, 3-[4-[5-[(6,6-dimethyl-4,7-dihydropyrazolo[5,1-c][1,4]oxazin-2-yl)amino]-1-methyl-6-oxo-3-pyridyl]-3-(hydroxymethyl)-2-pyridyl]-7,7-dimethyl-6,8-dihydrocyclopenta[3,4]thieno[1,3-d]pyridazin-4-one], the IC70 was 52.8 nM.

For `COCc1cc(Nc2cc(-c3ccnc(N4CCc5c(cc6n5CCCC6)C4=O)c3CO)cn(C)c2=O)nn1C` [Example 336, 2-[3-(hydroxymethyl)-4-[5-[[5-(methoxymethyl)-1-methyl-pyrazol-3-yl]amino]-1-methyl-6-oxo-3-pyridyl]-2-pyridyl]-3,4,6,7,8,9-hexahydropyrido[3,4-b]indolizin-1-one], the IC70 was determined as 330 nM. With `Cc1nc(Nc2cc(-c3ccnc(N4CCn5c(cc6c5CC(C)(C)C6)C4=O)c3CO)cn(C)c2=O)cn1C` [Example 337, 3-[4-[5-[(1,2-dimethylimidazol-4-yl)amino]-1-methyl-6-oxo-3-pyridyl]-3-(hydroxymethyl)-2-pyridyl]-7,7-dimethyl-1,2,6,8-tetrahydrocyclopenta[3,4]pyrrolo[3,5-b]pyrazin-4-one], the IC70 was found to be 613 nM.

On to `Cn1cc(-c2ccnc(N3CCn4c(cc5c4CC(C)(C)C5)C3=O)c2CO)cc(Nc2cc3n(n2)CCN(CCC#N)C3)c1=O` [Example 338, 3-[2-[[5-[2-(7,7-dimethyl-4-oxo-1,2,6,8-tetrahydrocyclopenta[3,4]pyrrolo[3,5-b]pyrazin-3-yl)-3-(hydroxymethyl)-4-pyridyl]-1-methyl-2-oxo-3-pyridyl]amino]-6,7-dihydro-4H-pyrazolo[155-a]pyrazin-5-yl]propanenitrile], for which the IC70 was 17.8 nM. The figure for `COCCN1CCN(c2ccc(Nc3cc(-c4ccnc(N5CCn6c(cc7c6CC(C)(C)C7)C5=O)c4CO)cn(C)c3=O)nc2)CC1` [Example 339, 3-[3-(hydroxymethyl)-4-[5-[[5-[4-(2-methoxyethyl)piperazin-1-yl]-2-pyridyl]amino]-1-methyl-6-oxo-3-pyridyl]-2-pyridyl]-7,7-dimethyl-1,2,6,8-tetrahydrocyclopenta[3,4]pyrrolo[3,5-b]pyrazin-4-one] is 53.5 nM; for `COCCN1CCN(c2ccc(Nc3cc(-c4ccnc(N5CCn6c(cc7c6CC(C)(C)C7)C5=O)c4CO)cn(C)c3=O)nc2)[C@@H](C)C1` [Example 340, 3-[3-(hydroxymethyl)-4-[5-[[5-[(2S)-4-(2-methoxyethyl)-2-methyl-piperazin-1-yl]-2-pyridyl]amino]-1-methyl-6-oxo-3-pyridyl]-2-pyridyl]-7,7-dimethyl-1,2,6,8-tetrahydrocyclopenta[3,4]pyrrolo[3,5-b]pyrazin-4-one] it is 20.7 nM.
